Results taken from ChEMBL document CHEMBL3507680, “University of Dundee, Gates Library screen for HepG2 cell viability”.

Assay: Human HepG2 cell viability assay in 384 well format
Assay type: toxicity, cell-based
Parameters: dose 125 nL, time 70.5 hour; cytotoxicity at 70.5 h: concentration not given beside the values
Conditions: HepG2 cells, read-out: Inhibition

| SMILES | cytotoxicity at 70.5 h |
| --- | --- |
| COCC(=O)N1CCC2(CC1)CNc1ccc(F)cc12 | -9.36% |
| CC(C)NC1CCc2c(ccc(=O)n2CCN(C)C)C1 (configuration not stated) | 7.71% |
| CCOCC1COCCC12CCN(C(=O)C1=CCCC1)CC2 (configuration not stated) | -5.05% |
| CC(C)(C)n1nc(C(=O)NCC2(C(N)=O)CCOCC2)cc1C1CC1 | -22.5% |
| O=C(Nc1ccnc(OC2CCOC2)c1)c1ccc(F)cc1Cl (configuration not stated) | 0.257% |
| COC[C@]1(O)CCN(Cc2ccc(N(C)C)nc2)CC1(C)C | -17.9% |
| CC1(C)CN(C(CNC2=NCCN2)c2ccc(Cl)cc2)CCO1 (configuration not stated) | -5.1% |
| Cc1nnc(NC(=O)CCc2c(C)nn3cnnc3c2C)s1 | -7.03% |
| CC(C)n1nc(CN(C)C)c2c1CN(C(=O)CC1CC1)CC2 | -4.55% |
| Cc1n[nH]c(C)c1NC(=O)CN1CCn2c(nnc2C(C)C)C1 | -7.95% |
| CN1CCN2C(=O)N(C3CCCCC3)C[C@H]2C1 | -5.56% |
| CCCOc1cc(C)ccc1NC(=O)NCCNC(=O)C(C)C | 25.7% |
| c1cc(CN2CCCC23CCCN(Cc2ccoc2)C3)ccn1 (configuration not stated) | -3.1% |
| CC(O)C1CCN(c2cc(Cl)ccc2C#N)CC1 (configuration not stated) | -14.2% |
| CN1CCCC1c1cncc(C(=O)NCc2ccccc2)n1 (configuration not stated) | -2.59% |
| Cc1cncnc1C1CCN(C(=O)CN(C)C)CC1 | -8.84% |
| Cc1ccc(C2(C(=O)NCCCn3cccn3)CCOCC2)cc1 | 14.4% |
| COc1cnc(CSc2nnc(C)s2)cc1OCC(=O)NC(C)(C)C | -7.68% |
| c1cncc(N2CCCn3nnc(CN4CCCCC4)c3C2)c1 | -0.156% |

| SMILES | cytotoxicity at 70.5 h |
| --- | --- |
| COc1cccc(C(O)Cn2ncc3ncccc3c2=O)c1 (configuration not stated) | -10.1% |
| COCCC(=O)N1CCC2(CCN(Cc3cccc(F)c3)CC2)C1 | -4.51% |
| Fc1ccc2c(C3=CCN(Cc4nnc(C5CCC5)o4)CC3)c[nH]c2c1 | 2.23% |
| COC(=O)C1(C)CCN(C(=O)NCCc2c(C)[nH]c3ccccc23)C1 (configuration not stated) | -3.86% |
| O=C(N1CCCC1)N1CCC2(CCN(Cc3ccccn3)C2=O)C1 (configuration not stated) | 2.54% |
| O=C1CC(C(=O)Nc2nnc(-c3ccccn3)[nH]2)c2ccccc2N1 (configuration not stated) | 6.91% |
| Cc1ccc2c(n1)N(CC1CC1)CCN(C(=O)NC1CC1)C2 | -7.71% |
| CC1CCC(NC(=O)Nc2ccc(CC(=O)N(C)C)cc2)CC1 (configuration not stated) | -5.4% |
| O=S(=O)(c1cccs1)N1CCN2C[C@H](OCC3CC3)C[C@H]2C1 | -3.74% |
| NC(=O)c1ccn(COc2ccccc2Cl)n1 | -9.79% |
| COCc1nn(C)c2c1CN(C(=O)c1ccno1)CC2 | -9.37% |
| CC(=O)c1c(F)cccc1NCC(O)c1ccc(F)c(F)c1 (configuration not stated) | -12.6% |
| Cc1nonc1NC(=O)C1SCCc2ccccc21 (configuration not stated) | 2.97% |
| CC(C)(O)CCc1ccc(C(=O)NCCC2CCOC2)cc1 (configuration not stated) | -2.2% |
| Cn1ccc2ccnc(CC3CN(C(=O)C4CCC(F)(F)CC4)C3)c21 | 3.02% |
| CN(Cc1cnn(C)c1)C(=O)NCc1csc(Br)c1 | 17.7% |
| CCc1nc(CN2CCCN(C(=O)CC(C)OC)CC2)cs1 (configuration not stated) | 51.7% |
| COc1cc(C2(C(=O)N3CCCC(n4cncn4)C3)CC2)ccc1C (configuration not stated) | -7.1% |
| Cc1nn(C2CCCC2)c2c1C(c1ccc3c(c1)OCO3)SCC(=O)N2 (configuration not stated) | -12.2% |

| SMILES | cytotoxicity at 70.5 h |
| --- | --- |
| N[C@H]1CCCN(C(=O)c2cnc(COc3ccccc3)nc2O)C1 | -9.44% |
| NS(=O)(=O)N1CCC(C(=O)Nc2cccc(OC(F)F)c2)CC1 | 1.39% |
| OC(CNCc1nnc2ccccn12)c1ccc2c(c1)OCCCO2 (configuration not stated) | -8.23% |
| O=C(c1ccc(Cn2ccccc2=O)o1)N1CCC2(CC1)OCCO2 | -2.65% |
| Cn1ncnc1NS(=O)(=O)c1ccc(F)cc1 | -0.583% |
| CN(C)S(=O)(=O)N1CCN(CC2CCOc3ccccc3C2)CC1 (configuration not stated) | -4.7% |
| CNC(=O)[C@@]12CCO[C@@H]1CCN(S(=O)(=O)c1cccnc1)C2 | -13.7% |
| CCOCC(=O)N1CCC(c2nccn2Cc2cscn2)CC1 | 21.4% |
| CCc1ccc(C2CCCCCN2Cc2nc(CCOC)no2)o1 (configuration not stated) | -6.85% |
| O=C(NCc1ccco1)C1CCCN1Cc1nc(-c2ccco2)no1 (configuration not stated) | -15.9% |
| O=C(CCc1ccsc1)Nc1cccnc1N1CCCC1 | -6.9% |
| COCCC(=O)N1CCCC2(CCC(=O)N2CCOC)CC1 (configuration not stated) | -7.23% |
| COCCOc1ccccc1NC(C)C(=O)NC(=O)NC(C)(C)C (configuration not stated) | -15.9% |
| CCC(c1ccc(F)cc1)N1CCn2c(CO)nnc2C1 (configuration not stated) | -8.02% |
| CCCOc1cccc(OCc2ccon2)c1 | -7.15% |
| Cc1c(C(=O)N2CCCSCC2)nnn1-c1ccccc1Cl | -8.81% |
| Cc1nnc(CN2C[C@H](NC(=O)CC3CCCC3)[C@@H](C3CC3)C2)s1 | -7.74% |
| Cn1cnc2nc3n(c2c1=O)CCC3 | 13.6% |
| CN(C)C(=O)N1C[C@@H]2CC[C@H](C1)N(Cc1nnc(C3CC3)o1)C2 | -16.8% |
